Measured values as given in patent US20210023089A1, “Compositions Useful for Treating Herpes Simplex Keratitis, and Methods Using Same” (priority 2013, published 2021).

Experiments:
[1] = system: ATM; test: pATM immunofluorescence in HEK293 cells transfected with purified HSV-1 genome; assay type: cell-based, human; conditions: HEK293 transfected with HSV-1 KOS genome, PAA for 24 hours
Method: Transfection of plasmids was done with GenDrill (BamaGen, Gaithersburg, Md.), whereas transfection of BACs was accomplished with Lipofectamine transfection reagent (Invitrogen, Carlsbad, Calif.). All transfections followed standard protocols and manufacturer's instructions. Medium was changed at 6 hour post transfection.
Cells were grown on cover slips, treated as indicated, fixed in 3% paraformaldehyde/2% sucrose solution for 10 min, and permeabilized with 0.5% Triton X-100 for 5 min. Indirect immunofluorescence was performed with primary antibodies overnight followed by secondary antibody staining for 2 hours. Primary antibodies were the same as those used for Western blotting. Nuclei were counterstained with […] of Höchst 33258.
(§1) hTCEpi, EPC2, and OKF6 are normal human epithelial cells from cornea, esophagus, and palate, respectively. HEK293 are human embryonic kidney epithelial cells. Cells were treated with tissue culture grade KU-55933 (10 μM), cycloheximide (5 μg/ml), phosphonoacetic acid (400 μg/ml), and H2O2 (150 μM). Viral particles were pre-treated with UV light at 0.2 J/cm^2.

[2] = system: ATM; test: ATM activation (pChk2 Western blot) in HSV-1 infected hTCEpi cells; assay type: cell-based, human; conditions: for effect on ATM activation (pChk2 staining): hTCEpi infected with HSV-1 at a range of MOIs, 1 hpi, PAA 400 μg/ml, CHX 5 μg/ml
Method: Standard protocol was followed for Western blot analysis. Cell lysates were collected in Laemmli buffer, vortexed, and boiled at 95° C. for 5 min. Protein concentrations were measured by reducing agent-compatible BCA assay. SDS-PAGE was followed by transfer onto a PVDF membrane, which was then blocked in 5% BSA. Primary antibody staining was performed overnight and blots were visualized on film or with the Odyssey near-infrared system (LI-COR, Lincoln, Nebr.). Primary antibodies against the following proteins were used: ICP0 (Virusys Corporation, Taneytown, Md.), ICP4, PML, and nucleolin (Santa Cruz Biotechnology, Santa Cruz, Calif.), ICP8, glycoproteins B and C, ATM and pATM-Ser1981 (Rockland, Gilbertsville, Pa.), Chk2 and pChk2-Thr68 (Cell Signaling, Danvers, Mass.).
as §1
Cultured cells were infected by applying the desired viral load in an inoculum volume equal to 10% of the normal volume of growth medium. During infection, cells were maintained at 37° C. and 5% CO2 and rocked every 10-15 min for 1 hour. Cells were then rinsed thoroughly with PBS and overlaid with fresh medium. For synchronized infections, virus was allowed to adsorb to cells while rocking at 4° C. After 1 hour, cells were transferred to 37° C. and 5% CO2 to initiate synchronized infection.

[3] = system: dlsptk strain of HSV-1 (TK mutant); test: qPCR of genome replication of drug-resistant HSV-1 in hTCEpi cells; assay type: cell-based; conditions: MOI 0.1, 16 hpi, KU-55933 10 μM, acyclovir 50 μg/mL
Method: All cells were cultured at 37° C. and 5% CO2 and supplemented with 100 U/mL penicillin and […]. Human corneal epithelial cells immortalized with hTERT (hTCEpi; Robertson, et al., 2005, Invest Ophthalmol Vis Sci. 46:470-478) were grown in complete keratinocyte growth medium 2 (KGM-2; Lonza, Basel, Switzerland). African green monkey kidney fibroblasts (CV-1; American Type Culture Collection, Manassas, Va.) were grown in Dulbecco's modified Eagle's medium (DMEM; Cellgro, Manassas, Va.) supplemented with 10% FBS. The KOS strain of HSV-1 was used in the in vitro and ex vivo infections, whereas McKrae strain was used for in vivo mouse experiments, and TK mutant dlsptk strain (Coen et al., 1989, Proc Natl Acad Sci USA 86:4736-4740) was used in the drug resistance experiments. All viral stocks were titered on CV-1 monolayers.
The following strains of HSV-1 were used: KOS, ICPO-null, HFEM, and tsB7. Subconfluent monolayers of cells were grown in six-well plates. Drug treatments were administered 45 minutes prior to infection and continued for the entire duration of each experiment. Unless indicated otherwise, KU-55933 (Batch No. 5, 99.7% purity; Tocris Bioscience, Bristol, UK) was used at 10 μM final concentration, phosphonoacetic acid (PAA) at 400 μg/mL (Sigma-Aldrich, St. Louis, Mo.), and acyclovir at 50 μg/mL (Sigma-Aldrich). KU-55933 was dissolved in dimethyl sulfoxide (DMSO), and the final concentration of DMSO in both KU-55933 and mock treatment in the in vitro and the ex vivo experiments was 0.1%.
Viral genome replication and transcription were measured by quantitative PCR (qPCR). Total DNA and RNA from infected cells were isolated using the DNeasy Blood & Tissue Kit and the RNeasy Mini Kit, respectively (QIAGEN, Hilden, Germany). RNA was converted to cDNA using qScript (Quanta BioSciences, Gaithersburg, Md.). […] Transcription of the three gene families was measured with primers for RL2 (ICPO), UL30 (DNA polymerase catalytic subunit), and UL44 (gC), with reference primers for the 18S ribosomal RNA (rRNA).

[4] = target: T1, ATM (Homo sapiens, UniProt Q13315); test: pATM Western blot in bleomycin-damaged ex vivo human corneas (bioavailability); assay type: cell-based; conditions: bleomycin 200 μg/mL 1 hour, KU-55933 10 μM 1 hour pretreatment
T1 construct: The epithelial layers were collected for protein lysates and analyzed by Western blot with antibodies against pATM (Ser1981) and total ATM; tissue Lions Eye Bank of Delaware Valley; host or cells: epithelial layer of explanted human corneas
T1 sequence (Q13315 whole entry): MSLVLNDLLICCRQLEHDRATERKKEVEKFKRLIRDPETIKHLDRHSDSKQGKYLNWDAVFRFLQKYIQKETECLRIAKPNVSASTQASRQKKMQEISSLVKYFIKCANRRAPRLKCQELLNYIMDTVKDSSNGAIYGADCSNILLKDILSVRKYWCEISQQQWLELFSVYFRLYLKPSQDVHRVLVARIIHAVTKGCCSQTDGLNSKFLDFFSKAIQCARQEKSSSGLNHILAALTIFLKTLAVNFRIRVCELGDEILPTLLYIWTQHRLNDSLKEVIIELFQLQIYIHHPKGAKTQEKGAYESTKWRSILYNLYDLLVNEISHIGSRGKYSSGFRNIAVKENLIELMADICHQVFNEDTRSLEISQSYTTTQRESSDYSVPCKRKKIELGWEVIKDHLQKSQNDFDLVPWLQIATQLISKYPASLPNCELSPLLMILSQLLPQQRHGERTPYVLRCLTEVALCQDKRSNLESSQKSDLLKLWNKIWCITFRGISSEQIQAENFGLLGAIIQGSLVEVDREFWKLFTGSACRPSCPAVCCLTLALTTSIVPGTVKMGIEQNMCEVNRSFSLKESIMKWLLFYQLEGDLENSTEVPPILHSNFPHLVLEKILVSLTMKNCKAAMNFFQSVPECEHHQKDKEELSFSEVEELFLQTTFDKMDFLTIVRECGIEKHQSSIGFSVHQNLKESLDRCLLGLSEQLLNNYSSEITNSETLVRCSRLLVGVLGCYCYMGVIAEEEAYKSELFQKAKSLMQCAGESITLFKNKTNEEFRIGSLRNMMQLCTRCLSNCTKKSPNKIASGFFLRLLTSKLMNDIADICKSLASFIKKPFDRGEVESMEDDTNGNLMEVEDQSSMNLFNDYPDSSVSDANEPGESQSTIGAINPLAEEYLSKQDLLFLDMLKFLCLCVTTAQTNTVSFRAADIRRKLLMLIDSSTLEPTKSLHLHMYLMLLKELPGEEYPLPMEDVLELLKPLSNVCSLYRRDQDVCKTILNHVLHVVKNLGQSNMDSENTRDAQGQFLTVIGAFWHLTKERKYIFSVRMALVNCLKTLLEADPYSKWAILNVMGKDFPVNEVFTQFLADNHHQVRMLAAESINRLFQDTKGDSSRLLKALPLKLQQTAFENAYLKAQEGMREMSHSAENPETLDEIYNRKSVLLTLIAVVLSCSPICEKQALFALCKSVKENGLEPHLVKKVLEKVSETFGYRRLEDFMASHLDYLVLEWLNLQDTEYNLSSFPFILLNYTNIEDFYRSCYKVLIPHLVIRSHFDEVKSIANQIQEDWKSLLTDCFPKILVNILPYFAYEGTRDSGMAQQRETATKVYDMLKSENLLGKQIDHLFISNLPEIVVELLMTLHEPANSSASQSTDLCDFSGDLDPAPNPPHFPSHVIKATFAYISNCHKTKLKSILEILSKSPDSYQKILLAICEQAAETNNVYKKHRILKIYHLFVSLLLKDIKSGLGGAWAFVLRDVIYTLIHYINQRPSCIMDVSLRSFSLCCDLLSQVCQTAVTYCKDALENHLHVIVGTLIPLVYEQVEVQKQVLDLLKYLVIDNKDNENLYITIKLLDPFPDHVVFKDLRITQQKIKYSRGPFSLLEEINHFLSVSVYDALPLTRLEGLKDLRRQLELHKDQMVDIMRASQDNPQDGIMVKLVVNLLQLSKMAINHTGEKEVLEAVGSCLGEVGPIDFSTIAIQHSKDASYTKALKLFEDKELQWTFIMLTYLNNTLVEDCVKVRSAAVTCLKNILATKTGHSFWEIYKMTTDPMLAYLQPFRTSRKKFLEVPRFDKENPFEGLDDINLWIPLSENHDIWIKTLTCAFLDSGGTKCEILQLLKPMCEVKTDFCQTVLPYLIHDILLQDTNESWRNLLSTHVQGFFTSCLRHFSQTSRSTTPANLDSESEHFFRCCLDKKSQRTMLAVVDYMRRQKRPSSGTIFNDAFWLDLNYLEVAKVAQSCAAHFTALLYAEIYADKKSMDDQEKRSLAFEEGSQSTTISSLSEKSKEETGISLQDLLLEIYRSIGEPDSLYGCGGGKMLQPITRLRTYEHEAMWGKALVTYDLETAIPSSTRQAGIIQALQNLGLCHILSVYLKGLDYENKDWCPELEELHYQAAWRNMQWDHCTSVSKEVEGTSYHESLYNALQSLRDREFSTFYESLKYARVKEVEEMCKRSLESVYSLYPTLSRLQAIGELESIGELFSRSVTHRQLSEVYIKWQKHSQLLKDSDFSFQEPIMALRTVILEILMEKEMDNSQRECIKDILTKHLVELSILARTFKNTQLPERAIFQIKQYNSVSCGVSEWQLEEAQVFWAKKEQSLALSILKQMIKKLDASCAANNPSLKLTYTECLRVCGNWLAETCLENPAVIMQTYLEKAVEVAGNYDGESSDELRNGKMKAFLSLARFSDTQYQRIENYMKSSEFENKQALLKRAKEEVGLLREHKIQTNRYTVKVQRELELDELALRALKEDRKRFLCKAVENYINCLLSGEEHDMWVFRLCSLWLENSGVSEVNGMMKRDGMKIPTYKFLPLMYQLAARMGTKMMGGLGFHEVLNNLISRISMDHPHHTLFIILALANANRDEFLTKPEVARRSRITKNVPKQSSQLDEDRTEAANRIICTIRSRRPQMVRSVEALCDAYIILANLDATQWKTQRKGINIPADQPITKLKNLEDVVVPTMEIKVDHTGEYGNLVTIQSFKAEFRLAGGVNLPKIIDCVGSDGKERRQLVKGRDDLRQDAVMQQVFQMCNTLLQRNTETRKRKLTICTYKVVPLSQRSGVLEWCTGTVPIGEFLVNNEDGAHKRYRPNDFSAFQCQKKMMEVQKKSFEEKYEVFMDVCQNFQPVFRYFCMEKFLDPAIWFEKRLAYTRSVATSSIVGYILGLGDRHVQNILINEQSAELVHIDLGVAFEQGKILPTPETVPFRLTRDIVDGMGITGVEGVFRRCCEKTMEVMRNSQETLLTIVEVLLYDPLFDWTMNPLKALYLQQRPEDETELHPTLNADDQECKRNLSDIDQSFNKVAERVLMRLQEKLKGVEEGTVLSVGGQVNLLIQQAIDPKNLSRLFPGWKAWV
Method: Human corneas were obtained from the Lions Eye Bank of Delaware Valley. Rabbit corneas were excised from intact fresh eyeballs of young (8-12 weeks) albino rabbits (Pel-Freez Biologicals, Rogers, Ark.). Protocol (Alekseev et al., 2012, J Vis Exp 69:e3631) for ex vivo corneal culture, infection, and treatment was followed closely. Briefly, corneoscleral buttons were excised and rinsed in PBS containing 200 U/mL penicillin and 200 μg/mL streptomycin. The endothelial concavity was filled with culture medium containing 1% low melting temperature agarose. The corneas were cultured epithelial side up in MEM medium supplemented with nonessential amino acids (1×), 2 mM […], 200 U/mL penicillin, and 200 μg/mL streptomycin. The next day, they were infected with 1×10^4 plaque forming units (PFU)/cornea of strain KOS HSV-1 for 1 hour, rinsed, and overlaid with fresh medium. Drug treatments were administered at the same concentrations as for cultured cells. For KU-55933 bioavailability assessment, corneas were treated with bleomycin (200 μg/mL) for 1 hour. […] Treatment toxicity was assessed by briefly staining the cornea with fluorescein (1% wt/vol in PBS) and imaging the epithelial defects with 464-nm wavelength blue light (LDP LLC, Carlstadt, N.J.).
Standard protocol was followed for Western blot analysis. […] Protein concentrations were measured by bicinchoninic acid (BCA) assay. […]

O=C(O)CP(=O)(O)O [PAA, phosphonoacetic acid]
ATM activation (pATM staining) in treated transfected cells [1]: not hindered in ATM activation | effect on ATM activation (pChk2 staining) [2]: no effect

Nc1nc2c(ncn2COCCO)c(=O)[nH]1 [acyclovir]
genome replication of dlsptk strain (qPCR) [3]: largely unresponsive

bleomycin
pATM level in corneal epithelium [4]: high level of pATM

C[C@@H]1C[C@@H]([C@H](O)CC2CC(=O)NC(=O)C2)C(=O)[C@@H](C)C1 [CHX, cycloheximide]
effect on pChk2 staining in PML-depleted cells ([2]; PML-depleted hTCEpi cells, compared with WT hTCEpi cells): same partial reduction | effect on ATM activation (pChk2 staining) [2]: partial inhibitory effect | effect on ATM activation by d120 (ICP4-null strain) ([2]; hTCEpi infected with d120, CHX 5 μg/ml): not affected
